Measured values: patent US11065253B2, “Arylquinazolines” (Merck Patent GmbH, priority 2013, dated 2021)
Read-outs that look alike come from different tables or passages of the source. Blank lines part the entries; values can stand above or below the compound they belong to.

Tested on: phospho-serine 2056 DNA-PK in HCT116 cells
Experiment: DNA-PK phosphorylation at serine 2056 (cellular), ELISA in bleomycin-treated HCT116 cells
Format: cell-based
Conditions: read-out: IC50 pDNA-PK
Experimental: HCT116 cells were cultivated at 37° C. and 10% CO2 in MEM alpha medium with 10% of foetal calf serum and 2 mM glutamine. The cells were detached from the base of the culture vessels with the aid of trypsin/EDTA, centrifuged off in centrifuge tubes, taken up in fresh medium, and the cell density was determined. 100,000 cells were sown in 1 ml of culture medium per cavity of a 24-well cell culture plate and cultivated overnight. Next day, 10 μM bleomycin (DNA intercalator and inductor of DNA double-strand breaks) and test substances in fresh culture medium were added to the cells, and these were cultivated for a further six hours. […] The 96-well ELISA plates were subsequently treated with a detection antibody (Abcam ab79444: total DNA-PK) and a streptavidin-HRP conjugate. The development of the enzymatic reaction was carried out with the aid of a chemiluminescent reagent, the chemiluminescence was measured with the aid of a Mithras LB940. The signals with the phospho-DNA-PK-specific antibody were standardised to the signal with the antibody against the total protein DNA-PKc. […] The DMSO control was used as blank.

[1] = Homo sapiens, HCT-116, 6 h, cellular, HCT116 cells, 10 μM bleomycin, six hours
[2] = Homo sapiens, HCT-116, phospho-serine 2056 DNA-PK, bleomycin-treated HCT116 cells, class symbols A-D
[3] = Homo sapiens, HCT-116, phospho-serine 2056 DNA-PK, bleomycin-treated HCT116 cells
[4] = Homo sapiens, HCT-116, cellular DNA-PK phosphorylation at serine 2056, HCT116 cells

SMILES: COc1ccc(C(C(N)=O)c2cc(-c3ncnc4cc(N5CCOCC5)ccc34)c(F)cc2F)nn1 (centres unmarked) [Example 306, 2-[2,4-Difluoro-5-(7-morpholin-4-yl-quinazolin-4-yl)-phenyl]-2-(6-methoxy-pyridazin-3-yl)acetamide]
IC50 [3]: 10 to 30 µM

SMILES: OC(c1ccc2nccn2n1)c1cc(-c2ncnc3cc(N4CCOCC4)ccc23)c(F)cc1F (centres unmarked) [Example 51, [2,4-Difluoro-5-(7-morpholin-4-yl-quinazolin-4-yl)phenyl]-imidazo[1,2-b]pyridazin-6-ylmethanol]
IC50 (cellular, HCT116 cells, 10 μM bleomycin, six hours): < 0.5 µM

SMILES: COc1ccc(C(C(N)=O)c2cc(-c3ncnc4cc(N5CCOCC5)ccc34)ccc2Cl)nn1 (centres unmarked) [Example 310, 2-[2-Chloro-5-(7-morpholin-4-yl-quinazolin-4-yl)-phenyl]-2-(6-methoxy-pyridazin-3-yl)acetamide]
IC50 [3]: 10 to 30 µM

SMILES: OC(c1ccc(F)c(-c2ncnc3cc(N4CCOCC4)ccc23)c1)c1nccnc1OC1COC1 (centres unmarked) [Example 32, [4-fluoro-3-(7-morpholin-4-yl-quinazolin-4-yl)phenyl]-[3-(oxetan-3-yloxy)-pyrazin-2-yl]methanol]
IC50 [1]: 5 to 10 µM

SMILES: [2H]c1c(N2CCOCC2)cc2ncnc(-c3cc(C(O)c4ccc(OC)nn4)c(Cl)cc3F)c2c1[2H] (centres unmarked) [Example 225, [2-Chloro-5-(5,6-dideuterio-7-morpholino-quinazolin-4-yl)-4-fluorophenyl]-(6-methoxypyridazin-3-yl)methanol]
IC50 [3]: < 0.5 µM

SMILES: Cn1c(C(O)c2ccc(F)c(-c3ncnc4cc(N5CCOCC5)ccc34)c2)cccc1=O (centres unmarked) [Example 376, 6-{[4-Fluoro-3-(7-morpholin-4-yl-quinazolin-4-yl)-phenyl]hydroxy-methyl}-1-methyl-1H-pyridin-2-one (Ena 1)]
IC50 (cellular DNA-PK phosphorylation at serine 2056, HCT116 cells): < 0.5 µM

SMILES: Cc1nccnc1C(O)c1ccc(F)c(-c2ncnc3cc(N4CCOCC4)c(F)cc23)c1 (centres unmarked) [Example 283, [4-Fluoro-3-(6-fluoro-7-morpholin-4-yl-quinazolin-4-yl)-phenyl]-(3-methyl-pyrazin-2-yl)-methanol]
IC50 [3]: 10 to 30 µM

SMILES: CC(C)(C)Oc1nccnc1C(O)c1ccc(F)c(-c2ncnc3cc(N4CCOCC4)ccc23)c1 (centres unmarked) [Example 13, (3-tert-Butoxy-pyrazin-2-yl)-[4-fluoro-3-(7-morpholin-4-yl-quinazolin-4-yl)phenyl]-methanol]
IC50 [1]: 10 to 30 µM

SMILES: COc1ccc(C(O)c2cc(-c3ncnc4cc(N5CCOCC5)ccc34)c(F)cc2F)c(F)c1 (centres unmarked) [Example 124, [2,4-Difluoro-5-(7-morpholin-4-yl-quinazolin-4-yl)-phenyl]-(2-fluoro-4-methoxy-phenyl)methanol]
IC50 [2]: 0.5 to 5 µM

SMILES: OC(c1ccccn1)c1cc(-c2ncnc3cc(N4CCOCC4)ccc23)c(F)cc1F (centres unmarked) [Example 218, [2,4-Difluoro-5-(7-morpholin-4-yl-quinazolin-4-yl)-phenyl]pyridin-2-yl-methanol]
IC50 [2]: < 0.5 µM

SMILES: COc1cnc(C(O)c2ccc(F)c(-c3ncnc4cc(N5CCOCC5)ccc34)c2)nc1 (centres unmarked) [Example 66, [4-Fluoro-3-(7-morpholin-4-yl-quinazolin-4-yl)phenyl]-(5-methoxypyrimidin-2-yl)methanol]
IC50 [1]: 10 to 30 µM

SMILES: OC(c1cc(F)c(F)c(-c2ncnc3cc(N4CCOCC4)ccc23)c1)c1nccs1 (centres unmarked) [Example 171, [3,4-Difluoro-5-(7-morpholin-4-yl-quinazolin-4-yl)-phenyl]thiazol-2-yl-methanol]
IC50 [2]: 0.5 to 5 µM

SMILES: [2H]C1([2H])OC([2H])([2H])C([2H])([2H])N(c2ccc3c(-c4cc(C(O)c5nccnc5OC)c(Cl)cc4F)ncnc3c2)C1([2H])[2H] (centres unmarked) [Example 241, [2-Chloro-4-fluoro-5-[7-(2,2,3,3,5,5,6,6-octadeuterio-morpholin-4-yl)quinazolin-4-yl]phenyl]-(3-methoxypyrazin-2-yl)methanol]
IC50 [3]: < 0.5 µM

SMILES: Cn1nc(C(C(N)=O)c2ccc(F)c(-c3ncnc4cc(N5CCOCC5)ccc34)c2)ccc1=O (centres unmarked) [Example 317, 2-[4-Fluoro-3-(7-morpholin-4-yl-quinazolin-4-yl)-phenyl]-2-(1-methyl-6-oxo-1,6-dihydro-pyridazin-3-yl)-acetamide]
IC50 [3]: 10 to 30 µM

SMILES: Cc1nc(C(O)c2cc(-c3ncnc4cc(N5CCOCC5)ccc34)cnc2F)sc1C (centres unmarked) [Example 205, (4,5-Dimethyl-thiazol-2-yl)-[2-fluoro-5-(7-morpholin-4-yl-quinazolin-4-yl)-pyridin-3-yl]-methanol]
IC50 [2]: 10 to 30 µM

SMILES: CN(C)c1ccc(C(O)c2ccc(F)c(-c3ncnc4cc(N5CCOCC5)ccc34)c2)nn1 (centres unmarked) [Example 68, (6-Dimethylamino-pyridazin-3-yl)-[4-fluoro-3-(7-morpholin-4-yl-quinazolin-4-yl)phenyl]-methanol]
IC50 [1]: 5 to 10 µM

SMILES: Cc1nccnc1/C(C(=O)O)=C1/C=CC(=O)C(c2ncnc3cc(N4CCOCC4)ccc23)=C1 [Example 331, (3-methyl-pyrazin-2-yl)-[3-(7-morpholin-4-ylquinazolin-4-yl)-4-oxocyclohexa-2,5-dien-(E)-ylidene]-acetic acid]
IC50 [3]: 5 to 10 µM

SMILES: CC(C)n1cc(C(O)c2ccc(F)c(-c3ncnc4cc(N5CCOCC5)ccc34)c2)cn1 (centres unmarked) [Example 197, [4-Fluoro-3-(7-morpholin-4-yl-quinazolin-4-yl)-phenyl]-(1-isopropyl-1 H-pyrazol-4-yl)-methanol]
IC50 [2]: 5 to 10 µM

SMILES: COc1cnc(Cl)c(C(O)c2ccc(F)c(-c3ncnc4cc(N5CCOCC5)ccc34)c2)n1 (centres unmarked) [Example 26, (3-Chloro-6-methoxy-pyrazin-2-yl)-[4-fluoro-3-(7-morpholin-4-yl-quinazolin-4-yl)phenyl]-methanol]
IC50 [1]: < 0.5 µM

Results, then the compound that gave them:

IC50 [1]: < 0.5 µM
SMILES: OC(c1cc(-c2ncnc3cc(N4CCOCC4)ccc23)c(F)cc1F)c1ncnc2sccc12 (centres unmarked) [Example 90, [2,4-Difluoro-5-(7-morpholin-4-yl-quinazolin-4-yl)-phenyl]thieno[2,3-d}-pyrimidin-4-ylmethanol]

IC50 [1]: 5 to 10 µM
SMILES: Cc1cnnc(C(O)c2cc(-c3ncnc4cc(N5CCOCC5)ccc34)c(F)cc2Cl)c1 (centres unmarked) [Example 46, [2-Chloro-4-fluoro-5-(7-morpholin-4-yl-quinazolin-4-yl)phenyl]-(5-methylpyridazin-3-yl)methanol]

IC50 [2]: < 0.5 µM
SMILES: OC(c1ccc(OC2COC2)nn1)c1cc(-c2ncnc3cc(N4CCOCC4)ccc23)c(F)cc1Cl (centres unmarked) [Example 100, [2-Chloro-4-fluoro-5-(7-morpholin-4-yl-quinazolin-4-yl)-phenyl]-[6-(oxetan-3-yloxy)pyridazin-3-yl]-methanol]

IC50 [1]: 5 to 10 µM
SMILES: OC(c1cnccn1)c1cc(-c2ncnc3cc(N4CCOCC4)ccc23)c(F)cc1Cl (centres unmarked) [Example 34, [2-Chloro-4-fluoro-5-(7-morpholin-4-yl-quinazolin-4-yl)phenyl]-pyrazin-2-ylmethanol]

IC50 [1]: < 0.5 µM
SMILES: CCn1nc(C(O)c2cc(-c3ncnc4cc(N5CCOCC5)ccc34)c(F)cc2Cl)ccc1=O (centres unmarked) [Example 93, 6-{[2-Chloro-4-fluoro-5-(7-morpholin-4-yl-quinazolin-4-yl)phenyl]-hydroxymethyl}-2-ethyl-2H-pyridazin-3-one]

IC50 [4]: 0.5 to 5 µM
SMILES: Cn1ncc2c(C(O)c3cc(-c4ncnc5cc(N6CCOCC6)ccc45)c(F)cc3Cl)ncnc21 (centres unmarked) [Example 402, [2-Chloro-4-fluoro-5-(7-morpholin-4-yl-quinazolin-4-yl)-phenyl]-(1-methyl-1H-pyrazolo[3,4-d}-pyrimidin-4-yl)-methanol]

IC50 [1]: < 0.5 µM
SMILES: OC(c1cc(-c2ncnc3cc(N4CCOCC4)ccc23)c(F)cc1Cl)c1nccnc1Cl (centres unmarked) [Example 64, [2-Chloro-4-fluoro-5-(7-morpholin-4-yl-quinazolin-4-yl)phenyl]-(3-chloropyrazin-2-yl)-methanol]

IC50 [2]: 5 to 10 µM
SMILES: NC(=O)COc1ccc(C(O)c2cc(-c3ncnc4cc(N5CCOCC5)ccc34)c(F)cc2Cl)nn1 (centres unmarked) [Example 111, 2-(6-{[2-Chloro-4-fluoro-5-(7-morpholin-4-yl-quinazolin-4-yl)-phenyl]hydroxy-methyl}pyridazin-3-yloxy)acetamide]

IC50 [1]: < 0.5 µM
SMILES: OC(c1ccn2nccc2n1)c1cc(-c2ncnc3cc(N4CCOCC4)ccc23)c(F)cc1Cl (centres unmarked) [Example 39, [2-Chloro-4-fluoro-5-(7-morpholin-4-yl-quinazolin-4-yl)phenyl]-pyrazolo[1,5-a]-pyrimidin-5-ylmethanol]

IC50 [3]: < 0.5 µM
SMILES: OC(c1cc(-c2ncnc3cc(N4CCOCC4)ccc23)c(F)cc1F)c1nccn2cccc12 (centres unmarked) [Example 358, [2,4-Difluoro-5-(7-morpholin-4-yl-quinazolin-4-yl)-phenyl]pyrrolo[1,2-a]-pyrazin-1-ylmethanol]

IC50 [2]: 0.5 to 5 µM
SMILES: OCc1csc(C(O)c2cc(-c3ncnc4cc(N5CCOCC5)ccc34)c(F)cc2Cl)n1 (centres unmarked) [Example 142, [2-Chloro-4-fluoro-5-(7-morpholin-4-yl-quinazolin-4-yl)-phenyl]-(4-hydroxymethyl-thiazol-2-yl)-methanol]

IC50 [4]: < 0.5 µM
SMILES: OC(c1cc(-c2ncnc3cc(N4CCOCC4)ccc23)c(F)cc1Cl)c1ncnc2ccoc12 (centres unmarked) [Example 440, [2-Chloro-4-fluoro-5-(7-morpholin-4-yl-quinazolin-4-yl)-phenyl]furo[3,2-d}-pyrimidin-4-yl-methanol]

IC50 [1]: < 0.5 µM
SMILES: Cc1nccnc1C(O)c1ccc(F)c(-c2ncnc3cc(N4CCOCC4)ccc23)c1 (centres unmarked) [Example 78, [4-Fluoro-3-(7-morpholin-4-yl-quinazolin-4-yl)phenyl]-(3-methylpyrazin-2-yl)-methanol]
